Assay results taken from publication PMC11662004 (Communications Chemistry, 2024).

Target: T1, TET2CDΔLCI (Homo sapiens, UniProt Q6N021)
T1 construct: FLAG-[thrombin cleavage site]-SUMO (N); made in house; host or cells: E. coli
Assay: Continuous reaction monitoring (1H NMR), 2OG decarboxylation
Type: biochemical
Conditions: for V0 TET2: 20 µM DNA, 100 μM 2OG, 5 μM TET2CDΔLCI; for Relative V0 TET2: relative to reactions without DNA
Method: Double-stranded DNA oligomers were added at a final concentration of 20 µM. Data plotted from two independent replicates (n = 2). Initial rates reported as the mean of two independent replicates (n = 2). TEXT PRINTED IN THE PICTURE: (c) No DNA: V0 (μM min^−1) NgTet1: 0.36; V0 (μM min^−1) TET2: 1.28; Relative V0 NgTet1: 1; Relative V0 TET2: 1 | (c) ^5HC DNA: V0 (μM min^−1) NgTet1: 1.30; V0 (μM min^−1) TET2: 6.34; Relative V0 NgTet1: 3.6; Relative V0 TET2: 5.0 | (c) AT DNA: V0 (μM min^−1) NgTet1: 0.82; V0 (μM min^−1) TET2: 5.78; Relative V0 NgTet1: 2.3; Relative V0 TET2: 4.5 | (c) ^5mC DNA: V0 (μM min^−1) NgTet1: 1.52; V0 (μM min^−1) TET2: 6.79; Relative V0 NgTet1: 4.2; Relative V0 TET2: 5.3
All ^1H NMR spectra were recorded at 25 °C using D2O as a reference for internal deuterium lock on a Bruker Avance III 700 MHz equipped with an inverse TCI cryoprobe in 3 or 5 mm diameter tubes with a total sample volume of 160 or 565 μL, respectively. The water signal was reduced using Perfect Echo excitation sculpting suppression. Chemical shifts are reported in ppm relative to D2O (δH = 4.70 ppm).
Spectrometer settings were determined using a control sample containing all reaction components excluding enzyme. TET enzyme was added to an identical sample, and the resulting assay mixture was transferred to an NMR tube before deposition into the instrument. […] Data acquisition was started following a brief spectrometer setting optimisation (up to 200 s delay between enzyme addition and data acquisition); 8–32 scans were accumulated for a single spectrum, corresponding to 65–179 s of acquisition time. Spectrum recordings were carried out consecutively without delay. Data were processed using automated routines on MestReNova v14.2.0; signals of interest were integrated with absolute intensity scaling. ^1H NMR time courses reported in figures are representative results from two or three independent replicates.

[1] = n = 1, time (min) 5HC DNA 5.78333, AT DNA 5.73333, 5mC DNA 5.58333
[2] = n = 1, time (min) 5HC DNA 8.86667, AT DNA 8.81667, 5mC DNA 8.65
[3] = n = 1, time (min) 5HC DNA 11.95, AT DNA 11.8833, 5mC DNA 11.7333
[4] = n = 1, time (min) 5HC DNA 15.0333, AT DNA 14.9667, 5mC DNA 14.8167
[5] = n = 1, time (min) 5HC DNA 18.1167, AT DNA 18.05, 5mC DNA 17.9
[6] = n = 1, time (min) 5HC DNA 21.2333, AT DNA 21.1333, 5mC DNA 21
[7] = n = 1, time (min) 5HC DNA 24.3333, AT DNA 24.2167, 5mC DNA 24.0667
[8] = n = 1, time (min) 5HC DNA 27.4167, AT DNA 27.3, 5mC DNA 27.15
[9] = n = 1, time (min) 5HC DNA 30.55, AT DNA 30.3833, 5mC DNA 30.2333
[10] = n = 1, time (min) 5HC DNA 33.65, AT DNA 33.4667, 5mC DNA 33.3167
[11] = n = 1, time (min) 5HC DNA 36.7333, AT DNA 36.5333, 5mC DNA 36.4
[12] = n = 1, time (min) 5HC DNA 39.8333, AT DNA 39.6167, 5mC DNA 39.4833
[13] = n = 1, time (min) 5HC DNA 42.9, AT DNA 42.7, 5mC DNA 42.5667
[14] = n = 1, time (min) 5HC DNA 46, AT DNA 45.7833, 5mC DNA 45.6667
[15] = n = 1, time (min) 5HC DNA 49.0833, AT DNA 48.8667, 5mC DNA 48.75
[16] = n = 1, time (min) 5HC DNA 52.1667, AT DNA 51.95, 5mC DNA 51.8333
[17] = n = 1, time (min) 5HC DNA 55.25, AT DNA 55.0333, 5mC DNA 54.9167
[18] = n = 1, time (min) 5HC DNA 58.3167, AT DNA 58.1167, 5mC DNA 58
[19] = n = 1, time (min) 5HC DNA 61.4, AT DNA 61.2667, 5mC DNA 61.1
[20] = n = 2, time (min) 5HC DNA 5.66667, AT DNA 5.66667, 5mC DNA 5.8
[21] = n = 2, time (min) 5HC DNA 8.75, AT DNA 8.75, 5mC DNA 8.88333
[22] = n = 2, time (min) 5HC DNA 11.8333, AT DNA 11.85, 5mC DNA 11.9667
[23] = n = 2, time (min) 5HC DNA 14.9167, AT DNA 14.9333, 5mC DNA 15.05
[24] = n = 2, time (min) 5HC DNA 18.0167, AT DNA 18.0167, 5mC DNA 18.1167
[25] = n = 2, time (min) 5HC DNA 21.1, AT DNA 21.1, 5mC DNA 21.2
[26] = n = 2, time (min) 5HC DNA 24.1833, AT DNA 24.1667, 5mC DNA 24.2833
[27] = n = 2, time (min) 5HC DNA 27.25, AT DNA 27.25, 5mC DNA 27.3667
[28] = n = 2, time (min) 5HC DNA 30.3333, AT DNA 30.3333, 5mC DNA 30.45
[29] = n = 2, time (min) 5HC DNA 33.4167, AT DNA 33.4167, 5mC DNA 33.5333
[30] = n = 2, time (min) 5HC DNA 36.5, AT DNA 36.5, 5mC DNA 36.6167
[31] = n = 2, time (min) 5HC DNA 39.5833, AT DNA 39.5833, 5mC DNA 39.7
[32] = n = 2, time (min) 5HC DNA 42.6667, AT DNA 42.6667, 5mC DNA 42.7833
[33] = n = 2, time (min) 5HC DNA 45.75, AT DNA 45.75, 5mC DNA 45.8667
[34] = n = 2, time (min) 5HC DNA 48.8333, AT DNA 48.8333, 5mC DNA 48.95

Row | Substance | V0 TET2 | succinate [1] | succinate [2] | succinate [3] | succinate [4] | succinate [5] | succinate [6] | succinate [7] | succinate [8] | succinate [9] | succinate [10] | succinate [11] | succinate [12] | succinate [13] | succinate [14] | succinate [15] | succinate [16] | succinate [17] | succinate [18] | succinate [19] | other results
1 | 5HC DNA: non-methylated DNA of the same sequence, 5'-ACC ACC GGT GGT-3', non-substrate (DNA ACCACCGGTGGT; DNA, backbone not given here) | 6.34 µM/min | 44.3007 µM | 54.4828 µM | 59.3102 µM | 61.4847 µM | 65.1131 µM | 67.3764 µM | 68.0997 µM | 69.3831 µM | 70.6241 µM | 71.0252 µM | 71.8004 µM | 71.1327 µM | 71.8764 µM | 73.8393 µM | 72.8966 µM | 73.2704 µM | 74.052 µM | 74.0256 µM | 74.622 µM | succinate [20]: 46.0808 µM; succinate [21]: 55.6216 µM; succinate [22]: 60.916 µM; succinate [23]: 64.6085 µM; succinate [24]: 67.8421 µM; succinate [25]: 69.2588 µM; succinate [26]: 70.2836 µM; succinate [27]: 71.3409 µM; succinate [28]: 71.8731 µM; succinate [29]: 71.8297 µM; succinate [30]: 74.102 µM; succinate [31]: 75.5956 µM; succinate [32]: 75.7723 µM; succinate [33]: 76.9891 µM; succinate [34]: 76.9274 µM; Relative V0 TET2: 5.0
2 | AT DNA: double-stranded self-complementary 5'-ACC ACA TGT GGT-3', CpG replaced by ApT (DNA ACCACATGTGGT; DNA, backbone and methylation of C not given here; self-complementary duplex) | 5.78 µM/min | 39.5956 µM | 49.5065 µM | 54.2458 µM | 57.9674 µM | 59.2828 µM | 62.1944 µM | 62.9572 µM | 64.7984 µM | 64.7023 µM | 65.163 µM | 66.9776 µM | 66.6376 µM | 66.8738 µM | 68.072 µM | 67.0651 µM | 67.7938 µM | 69.134 µM | 67.5356 µM | 68.2246 µM | succinate [20]: 40.358 µM; succinate [21]: 49.4783 µM; succinate [22]: 54.4351 µM; succinate [23]: 56.62 µM; succinate [24]: 59.0171 µM; succinate [25]: 60.9868 µM; succinate [26]: 62.4531 µM; succinate [27]: 63.5112 µM; succinate [28]: 64.7948 µM; succinate [29]: 64.9179 µM; succinate [30]: 65.839 µM; succinate [31]: 65.6357 µM; succinate [32]: 67.3494 µM; succinate [33]: 68.1347 µM; succinate [34]: 66.7934 µM; Relative V0 TET2: 4.5
